Laboratory results published in patent US9994515B2, “Aryl naphthyl methanone oxime(s) and process for preparation thereof” (Council of Scientific & Industrial Research, priority 2013, dated 2018).
Where a name gives a salt, the structure may show the parent alone.

Columns and labels:
Kasumi 1 = assay: Cytotoxicity in Kasumi 1 cells; assay type: cell-based; conditions: Table 2; oxalate
[1] = system: PBMCs from patients with BCR-ABL H396R mutation; assay: MTT cytotoxicity in PBMCs from CML patient with H396R BCR-ABL mutation; assay type: cell-based, human; conditions: 5 μM, 48 h
[2] = system: PBMCs from patients with BCR-ABL E255V mutation; assay: MTT cytotoxicity in PBMCs from CML patient with E255V BCR-ABL mutation; assay type: cell-based, human; conditions: 5 μM, 48 h
HL-60 [3] = assay: Cell cycle analysis (PI staining, flow cytometry) in HL-60; assay type: cell-based; conditions: 0.5 μM
Protocol: Propidium iodide (PI) staining of K562 cells (A) and HL-60 cells (B) treated with vehicle (DMSO) or 0.5 μM Centans, followed by flow cytometry analysis to find % distribution of cells in different phases of the cell cycle. Data has been shown as percent of total cells from data pooled from three independent experiments. (C and D). mRNA expression of cell cycle regulatory factors—K562 (C) or HL-60 (D) cells were treated with Vehicle or Centans, followed by mRNA isolation and cDNA preparation and quantitative real-time PCR (p21, p27 and cyclin D1). Graphs represented pooled data from three independent experiments. *P<0.05, **P<0.01,***P<0.001 compared to vehicle treated control.

K562 = assay: Differentiation of K562 cells (Wright-Giemsa staining); assay type: cell-based; conditions: 0.5 μM; 3, 6 and 12 days
From the text: In order to clarify whether the inhibitory effects of Centans on the growth and cell cycle of K562 cells was followed by differentiation, Centans treated cells was stained with Wright-Giemsa stain. […] This differentiation was much more pronounced at 12d, where mature megakaryocytes were visible (FIG. 4A). Confirmation of Centans-mediated megakaryocytic differentiation was attained through measurement of expression of relevant cell differentiation markers by quantitative real time PCR. mRNA expression levels of cluster of differentiation 10 (CD10) (transiently present during B-cell maturation at early-B and pre-B lymphoblastic stages and related to megakaryocytic differentiation), CD36 (erythroid differentiation lineage), GATA2 (Over expression of GATA-2 inhibits erythroid and promotes megakaryocyte differentiation) and CD61 (megakaryocytic differentiation marker) was measured.
FIG. 4. CentANS induces Differentiation in K562 cells. […] (B) Expression of differentiation Markers—K562 cells were treated with vehicle; V (DMSO) or centANS and mRNA from these cells were isolated and reverse transcribed. cDNA was used to measure the expression CD10, GATA2, CD61, (megakaryocytic lineage markers) and CD36 (Erythroid lineage marker) by Quantitative Real time PCR, GAPDH was used as control. […]

HL-60 [4] = assay: Differentiation of HL-60 cells (Wright-Giemsa staining, NBT reduction); assay type: cell-based; conditions: 1 μM; 3, 6 and 12 days
Protocol: Differentiation potential of Centans on HL-60 cells was evaluated by the effect of this compound on Nuclear/cytosolic ratio and change in nuclear morphology, which are reliable markers of differentiation. For this, HL60 cell treated with Centans were cyto-spinned on microscope slides and stained with Wright-Giemsa and micro-photographed. […] This was further confirmed by nitro blue tetrazolium (NBT) reduction assay in HL-60 cells (NBT reduction is a hallmark of monocyte activity). FIG. 5A (lower panel) depicts time-dependent reduction of NBT by Centans-treated cells.
FIG. 5. Centans induces granulocytic/monocytic differentiation in HL-60 model of AML. A. HL60 cells treated with Centans (1 μM) for 3, 6 and 12 days were cytospinned on Microscope slides and stained with Giemsa and May Grünwald solutions (upper panel) or NBT (lower panel), slides were microphotographed and used to detect change in nuclear morphology and NBT reduction. B. HL60 cells were treated with Vehicle (DMSO) or Centans as indicated in image, mRNA from these samples were isolated and reverse transcribed and these samples were used to measure the expression of CD11b GCSFR, and C/EBPα/β& ϵ by Quantitative real-time PCR, using GAPDH as normalizing control. Data presented as mean f SEM from three independent experiments; *P<0.05, **P<0.01, and ***P<0.001 compared to vehicle treated control.

DU-145 = assay: MTT assay in DU-145 prostate tumor cells; assay type: cell-based; conditions: Homo sapiens, DU-145, Table 6, 48 h, 10 point dose response
MCF-7 = assay: Annexin V/PI apoptosis flow cytometry in MCF-7; assay type: cell-based; conditions: 24 h
Protocol: (§1) To assess if the cell death induced by centans in MCF-7 and MDA-MB231 lines is apoptotic in nature, apoptosis was measured by flow cytometry using annexin V/PI staining kit from Sigma according to manufacturer's instructions.
(§2) FIG. 6 Apoptosis induction by Centans in breast cancer cells. Annexin V/PI staining of (A) MCF-7 and (B) MDA-MB231 cells were treated with vehicle (DMSO) or Centans at indicated concentrations for 24 h and […] was assessed by flow cytometry using the FL1-H channel (Annexin-V) and FL2-H channel (PI) of a Becton Dickinson FACS Calibur. Shown are representative dot plots. Quantification of flow cytometry data shown as percent of total cells (right panel). Data presented as mean±SEM from three independent experiments; *P<0.05, **P<0.01, and ***P<0.001 compared to control.

MDA-MB231 = assay: Annexin V/PI apoptosis flow cytometry in MDA-MB231; assay type: cell-based; conditions: 24 h
Protocol: as §1, §2

EGFR = target: T1, EGFR (Homo sapiens, UniProt P00533); assay: EGF dependent EGFR phosphorylation ELISA in MDA-MB-231 cells; assay type: cell-based; conditions: read-out: IC50 in terms of EGFR phosphorylation
T1 construct: Serum starved (A,C) MCF-7 cells and (B,D) MDA-MB231 cells were pre-incubated for 1 h; endogenous in cells; host or cells: MCF-7
Protocol: (§3) Since EGFR and Her2 play major roles in breast cancer development and metastatis, the effect of Centans on regulation of these two factors was evaluated in MCF-7 and MDA-MB-231 cells by enzyme-linked immunosorbant assays (ELISA). As depicted in FIGS. 7. A and B, EGF dependent EGFR phosphorylation at Tyr^1068 was strongly attenuated by Centans in both MCF-7 and MDA-MB-231 cells and this effect was much stronger than that of Gefitinib (marketted EGFR inhibitor/anti-cancer drug).
(§4) FIG. 7. Inhibition of EGFR and Her2 phosphorylation by Centans in MCF-7 and MDA-MB231 cells. Serum starved (A,C) MCF-7 cells and (B,D) MDA-MB231 cells were pre-incubated for 1 h with the indicated concentrations of Centans prior to stimulation with EGF for 15 min and EGFR (A and B) or Her2 (C and D) phosphorylation were measured by ELISA. Gef=Gefitinib. All doses are in μM.

Her2 [5] = target: T2, Her2 (Homo sapiens, UniProt P04626); assay: Her2 phosphorylation ELISA in MCF-7 cells; assay type: cell-based
T2 construct: Serum starved (A,C) MCF-7 cells and (B,D) MDA-MB231 cells were pre-incubated for 1 h; endogenous in cells; host or cells: MCF-7
Protocol: as §3, §4

Her2 [6] = target: T2, Her2; assay: Her2 phosphorylation ELISA in MDA-MB-231 cells; assay type: cell-based
Protocol: as §3, §4

T2 sequence (P04626 23-1255): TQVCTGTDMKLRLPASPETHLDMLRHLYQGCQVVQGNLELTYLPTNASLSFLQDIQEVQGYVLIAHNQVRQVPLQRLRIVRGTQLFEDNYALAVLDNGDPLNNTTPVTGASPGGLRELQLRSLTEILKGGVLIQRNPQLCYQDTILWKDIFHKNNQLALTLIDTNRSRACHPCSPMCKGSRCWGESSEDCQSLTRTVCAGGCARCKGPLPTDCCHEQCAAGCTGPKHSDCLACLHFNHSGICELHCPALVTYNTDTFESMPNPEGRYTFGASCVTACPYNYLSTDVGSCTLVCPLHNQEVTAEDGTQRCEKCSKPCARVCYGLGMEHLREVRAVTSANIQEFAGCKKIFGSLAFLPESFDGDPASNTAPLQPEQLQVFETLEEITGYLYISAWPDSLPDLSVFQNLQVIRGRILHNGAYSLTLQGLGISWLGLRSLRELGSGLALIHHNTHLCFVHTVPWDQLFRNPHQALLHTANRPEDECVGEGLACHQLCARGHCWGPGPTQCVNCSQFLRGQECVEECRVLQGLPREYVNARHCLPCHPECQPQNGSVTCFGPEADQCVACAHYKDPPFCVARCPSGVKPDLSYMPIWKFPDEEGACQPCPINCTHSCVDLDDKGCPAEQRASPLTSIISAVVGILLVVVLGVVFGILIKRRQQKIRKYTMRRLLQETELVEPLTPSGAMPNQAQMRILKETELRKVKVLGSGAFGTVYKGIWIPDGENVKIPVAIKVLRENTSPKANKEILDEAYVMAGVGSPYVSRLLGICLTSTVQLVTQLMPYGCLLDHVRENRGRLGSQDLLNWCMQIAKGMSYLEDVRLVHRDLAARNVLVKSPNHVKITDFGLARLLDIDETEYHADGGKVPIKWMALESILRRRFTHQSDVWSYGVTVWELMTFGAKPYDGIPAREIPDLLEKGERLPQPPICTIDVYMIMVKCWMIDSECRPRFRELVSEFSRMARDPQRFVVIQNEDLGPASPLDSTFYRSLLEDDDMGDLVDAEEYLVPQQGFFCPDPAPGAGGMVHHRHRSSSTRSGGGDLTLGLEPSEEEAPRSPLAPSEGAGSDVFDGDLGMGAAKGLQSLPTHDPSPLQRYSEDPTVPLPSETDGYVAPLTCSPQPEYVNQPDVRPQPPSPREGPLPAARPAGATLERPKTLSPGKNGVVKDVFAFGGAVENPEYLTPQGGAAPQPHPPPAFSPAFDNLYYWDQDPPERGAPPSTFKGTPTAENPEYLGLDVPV
T1 sequence (P00533 25-1210): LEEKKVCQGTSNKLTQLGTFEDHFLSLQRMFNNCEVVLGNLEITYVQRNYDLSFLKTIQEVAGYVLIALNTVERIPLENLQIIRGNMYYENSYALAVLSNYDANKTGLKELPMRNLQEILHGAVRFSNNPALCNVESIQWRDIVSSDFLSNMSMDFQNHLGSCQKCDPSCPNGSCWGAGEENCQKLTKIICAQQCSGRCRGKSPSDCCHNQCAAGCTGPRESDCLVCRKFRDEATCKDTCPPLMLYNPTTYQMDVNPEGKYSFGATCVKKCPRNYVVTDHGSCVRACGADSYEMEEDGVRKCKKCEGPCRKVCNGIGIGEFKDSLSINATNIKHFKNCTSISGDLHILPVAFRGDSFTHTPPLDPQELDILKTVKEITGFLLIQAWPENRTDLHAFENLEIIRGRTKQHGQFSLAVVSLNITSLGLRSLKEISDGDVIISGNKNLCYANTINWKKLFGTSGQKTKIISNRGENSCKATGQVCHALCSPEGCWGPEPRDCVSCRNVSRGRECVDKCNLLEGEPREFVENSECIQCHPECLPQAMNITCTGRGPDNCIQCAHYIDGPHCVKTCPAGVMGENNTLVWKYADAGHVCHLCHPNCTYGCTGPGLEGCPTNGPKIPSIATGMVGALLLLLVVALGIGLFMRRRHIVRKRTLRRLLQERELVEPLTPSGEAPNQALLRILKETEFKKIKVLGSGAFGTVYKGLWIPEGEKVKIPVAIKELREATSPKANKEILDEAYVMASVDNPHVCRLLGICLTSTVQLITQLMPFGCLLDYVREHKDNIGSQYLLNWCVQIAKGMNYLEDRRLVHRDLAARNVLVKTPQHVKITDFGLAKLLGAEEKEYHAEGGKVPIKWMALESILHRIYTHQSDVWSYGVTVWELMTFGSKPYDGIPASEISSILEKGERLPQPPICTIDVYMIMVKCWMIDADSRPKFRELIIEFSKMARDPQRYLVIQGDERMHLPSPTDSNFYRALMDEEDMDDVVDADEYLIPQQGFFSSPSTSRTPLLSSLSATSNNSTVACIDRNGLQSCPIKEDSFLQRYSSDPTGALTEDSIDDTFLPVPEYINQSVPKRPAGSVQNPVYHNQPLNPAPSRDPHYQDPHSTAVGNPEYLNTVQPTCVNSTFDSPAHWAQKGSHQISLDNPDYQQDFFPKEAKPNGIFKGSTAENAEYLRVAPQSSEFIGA

CCN(CC)CCO/N=C(/c1ccc(SC)cc1)c1cccc2ccccc12 [Compound 5d, (4-(methylthio)phenyl)(naphthalen-1-yl)methanone O-2-(diethylamino)ethyl oxime oxalate]
IC50 (Kasumi 1): 6.78 µM | % cell death [1]: 40.78% | % cell death [2]: 48.18% | cell cycle distribution (HL-60 [3]): G1 and apoptotic sub-populations were significantly increased | differentiation of K562 cells (K562): capable of inducing differentiation in K562 cells in a dose-dependent manner | differentiation of HL-60 cells (HL-60 [4]): morphological features of differentiation, such as condensation of nuclei and protrusion of cytoplasm, were clearly evident | IC50 (DU-145): 9 µM | apoptotic cell population (MCF-7): concentration-dependent increase in apoptotic cell population | apoptotic cell population (MDA-MB231): concentration-dependent increase in apoptotic cell population | IC50 (EGFR): 0.0128 µM | HER2 phosphorylation (Her2 [5]): significantly reduced HER2 phosphorylation in a dose-dependent manner | HER2 phosphorylation (Her2 [6]): significantly reduced HER2 phosphorylation in a dose-dependent manner
